Where “and” joins values, the source holds several entries; their conditions need not be identical. Equal values may be shown once. Read-outs that look alike come from different tables or passages of the source.
Tests used:
DPPH radical scavenging = settings: compound 0.1 mM
Protocol: (§1) S1 Antioxidant biological assay
The antioxidant activity of the compounds was evaluated via their ability to scavenge in
vitro free radicals such as DPPH and ABTS and to reduce H2O2. All the experiments were carried
S1.1 Determination of the reducing activity of the stable radical DPPH
To an ethanolic solution of DPPH (0.1 mM) an equal volume solution of the compounds
(0.1 mM) in ethanol was added. Absolute ethanol was also used as control solution. The absorbance
at 517 nm was recorded at room temperature after 30 and 60 min, in order to examine the possible
existence of a potential time–dependence of the DPPH radical scavenging activity [S1]. The DPPH–
scavenging activity of the compounds was expressed as the percentage reduction of the absorbance
values of the initial DPPH solution (DPPH%). NDGA and BHT were used as reference compounds. […]

CT DNA = settings: cited from earlier work
BSA [1] = target: T1, BSA (Bos taurus, UniProt P02769); settings: cited from earlier work
T1 construct: purchased Sigma-Aldrich Co
T1 sequence (P02769 25-607): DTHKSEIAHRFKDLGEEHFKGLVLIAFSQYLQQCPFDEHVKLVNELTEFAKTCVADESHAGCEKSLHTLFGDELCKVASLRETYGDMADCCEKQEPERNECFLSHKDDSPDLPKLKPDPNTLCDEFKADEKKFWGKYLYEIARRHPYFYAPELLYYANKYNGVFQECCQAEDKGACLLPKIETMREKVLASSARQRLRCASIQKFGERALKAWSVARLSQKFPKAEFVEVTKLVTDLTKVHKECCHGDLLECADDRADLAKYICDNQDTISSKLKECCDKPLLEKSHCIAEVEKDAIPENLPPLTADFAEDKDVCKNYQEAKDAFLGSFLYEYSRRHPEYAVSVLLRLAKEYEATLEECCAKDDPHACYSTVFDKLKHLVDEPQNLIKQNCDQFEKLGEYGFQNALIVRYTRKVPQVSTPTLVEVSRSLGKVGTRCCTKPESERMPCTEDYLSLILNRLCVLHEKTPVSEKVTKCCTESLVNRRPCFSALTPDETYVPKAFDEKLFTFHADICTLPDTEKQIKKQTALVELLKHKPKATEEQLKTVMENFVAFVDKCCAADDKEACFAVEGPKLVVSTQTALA

EB-DNA adduct (CT DNA) = settings: cited from earlier work
[2] = cited from earlier work
[3] = test system: Staphylococcus aureus ATCC 6538; assay: MIC determination; format: cell-based
Protocol: (§2) S2 Antibacterial activity
(§3) The antimicrobial activity of the compounds was evaluated by determining their respective MIC values towards two Gram–(–) (Escherichia coli NCTC 29212 (E. coli) and Xanthomonas campestris ATCC 1395 (X. campestris)) and two Gram–(+) (Staphylococcus aureus ATCC 6538 (S. aureus) and Bacillus subtilis ATCC 6633 (B. subtilis)) bacterial species. Cultures of these microbial strains were grown on a rich selective agar medium and stored at 4°C. The selective media used were Nutrient Agar or Broth for B. subtilis and S. aureus, Yeast Mold Agar or Broth for X. campestris and Luria Agar or Broth for E. coli. Cells picked from the surface of the stored cultures were used to initiate liquid pre–cultures of the same selective medium at an initial turbidity of roughly 1 McFarland unit. Pre–cultures were incubated for 24 h in a rotary shaking incubator and subsequently they were used to inoculate the test cultures used for the determination of MIC at an initial turbidity of 0.5 McFarland units. The test cultures consisted of Mueller –Hinton broth (Deben Diagnostics Ltd) containing different concentrations of the compounds.
(§4) Different concentrations were achieved as follows: the compounds were freshly dissolved in DMSO to a concentration of 1 mg mL–1 and they were diluted with DMSO, using the method of progressive double dilution. Therefore, working solutions with decreasing concentrations of the compounds under investigation were achieved. The working solutions were subsequently diluted to the final desired concentration by addition to the growth medium at a proportion of 2:98. MIC values were determined as the lowest concentrations of the tested compounds that inhibited visible growth of each respective organism after a 24 h incubation [ S3]. Bacterial growth was determined by measuring the turbidity of appropriately diluted cultures at 600 nm with reference to equally diluted sterile growth medium and the inhibition achieved was calculated by comparing the turbidity of each culture to the average of the turbidity of three non–inhibited cultures. All test cultures were grown in triplicates and for the determination of MIC, growth had to be inhibited in at least two cultures of the triplicate. Incubation temperature at all stages was 37°C except for X. campestris that was cultivated at 28°C [S4].

[4] = test system: Xanthomonas campestris ATCC 1395; assay: MIC determination; format: cell-based; settings: Xanthomonas campestris, ATCC1395, 24 h, read-out: MIC X. campestris
Protocol: as §2, §3, §4

[5] = test system: Escherichia coli NCTC 29212; assay: MIC determination; format: cell-based
Protocol: as §2, §3, §4

[6] = test system: Bacillus subtilis ATCC 6633; assay: MIC determination; format: cell-based
Protocol: as §2, §3, §4

BSA [7] = target: T1, BSA; settings: cited from earlier work; remark: listed apart in the source
HSA [8] = target: T2, HSA (Homo sapiens, UniProt P02768); settings: cited from earlier work
T2 construct: purchased Sigma-Aldrich Co
T2 sequence (P02768 25-609): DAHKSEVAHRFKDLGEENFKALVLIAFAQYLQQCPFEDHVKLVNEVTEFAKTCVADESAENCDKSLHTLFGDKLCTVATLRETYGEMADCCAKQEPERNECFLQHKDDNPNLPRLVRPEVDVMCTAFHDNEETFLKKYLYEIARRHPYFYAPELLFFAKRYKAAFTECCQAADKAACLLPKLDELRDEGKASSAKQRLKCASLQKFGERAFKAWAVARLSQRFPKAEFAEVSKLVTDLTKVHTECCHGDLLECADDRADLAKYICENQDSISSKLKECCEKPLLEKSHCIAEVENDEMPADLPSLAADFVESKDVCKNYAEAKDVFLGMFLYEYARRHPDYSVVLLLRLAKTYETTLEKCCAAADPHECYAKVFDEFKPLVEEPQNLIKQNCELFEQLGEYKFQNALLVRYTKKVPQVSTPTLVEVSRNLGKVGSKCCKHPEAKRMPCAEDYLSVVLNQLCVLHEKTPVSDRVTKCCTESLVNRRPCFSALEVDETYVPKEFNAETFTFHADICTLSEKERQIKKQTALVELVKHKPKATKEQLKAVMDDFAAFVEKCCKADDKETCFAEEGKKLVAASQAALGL

[9] = cited from earlier work; remark: listed apart in the source
HSA [10] = target: T2, HSA; settings: cited from earlier work; remark: listed apart in the source
[11] = cited from earlier work; remark: listed apart in the source
[12] = ABTS radical cation scavenging; settings: compound 0.1 mM
Protocol: as §1
(§5) The antioxidant activity of the compounds was evaluated via their ability to scavenge in […]
(§6) vitro free radicals such as DPPH and ABTS and to reduce H2O2. […]
S1.2 Assay of radical cation ABTS–scavenging activity
The ABTS assay was performed to determine the activity of the compounds to scavenge the […]
radical cation ABTS. Initially, a water solution of ABTS was prepared (2 mM). ABTS radical cation […]
(ABTS+·) was produced by the reaction of ABTS stock solution with potassium persulfate (0.17 […]
mM) and the mixture was stored in the dark at room temperature for 12–16 h before its use. The […]
ABTS was oxidized incompletely because the stoichiometric reaction ratio of ABTS and potassium […]
persulfate is 1:0.5. The absorbance became maximal and stable only after more than 6 h of reaction […]
although the oxidation of the ABTS started immediately. The radical was stable in this form for […]
more than 2 days when allowed to stand in the dark at room temperature. Afterwards, the ABTS+· […]
solution was diluted in ethanol to an absorbance of 0.70 at 734 nm and 10 μL of diluted compounds or standards (0.1 mM) in DMSO were added. The absorbance was recorded out exactly 1 min after […]
initial mixing [S1]. The ABTS radical scavenging activity was expressed as the percentage inhibition of the absorbance of the initial ABTS solution (ABTS%). […]

[13] = test system: S. aureus, B. subtilis, E. coli, X. campestris; assay: MIC stated for all tested bacterial strains; format: cell-based; settings: all tested microbes
Protocol: as §2, §3, §4

[14] = Reduction of hydrogen peroxide; settings: compound 0.1 mM
Protocol: as §1, §5, §6
S1.3 Reduction of hydrogen peroxide
The ability of the compounds to reduce hydrogen peroxide (H2O2) was estimated according […]
to the method described in the literature [S2]. The reaction mixture contained 20 μL of each of the […]
tested compounds (0.1 mM) and 5 μL H 2O2 solution (40 mM) in phosphate buffer (50 mM, pH 7.4).
The absorbance was measured at 230 nm after 10 min. The antioxidant activity (reduction of […]

## Cc1cc(C(C)(C)C)c(O)c(C(C)(C)C)c1 [BHT, butylated hydroxytoluene, reference compound]
DPPH radical scavenging
  DPPH% (30 min): 61.30 ± 1.16%
  DPPH% (60 min): 79.78 ± 1.12%

## CC[n+]1c(-c2ccccc2)c2cc(N)ccc2c2ccc(N)cc21.[Br-] [EB, 3,8-diamino-5-ethyl-6-phenyl-phenanthridinium bromide]
CT DNA; classical intercalator
  Kb (DNA-binding constant): 1.23 (±0.07) × 10^5 M^−1

## O=Cc1cc(Br)cc(Br)c1O [3,5-diBr-saloH, 3,5-dibromo-salicylaldehyde]
BSA [1]
  K BSA-binding constant: 2.97 (±0.16) × 10^6 M^−1
  kq BSA-quenching constant: 3.65 (±0.25) × 10^13 M^−1 s^−1
EB-DNA adduct (CT DNA)
  KSV (Stern–Volmer constant), EB-DNA: 3.95 (±0.10) × 10^4 M^−1
  kq (EB-DNA quenching constant): 1.72 (±0.04) × 10^12 M^−1s^−1
  ΔΙ/Ι0 (%) EB-DNA fluorescence quenching: 46.6%
[2]
  ABTS%: 16.55 ± 0.31%
[3]; Staphylococcus aureus, ATCC6538, 24 h, read-out: MIC S. aureus
  MIC: 25 µg/mL and 89 µM
[4]
  MIC: 25 µg/mL and 89 µM
[5]; Escherichia coli, NCTC29212, 24 h, read-out: MIC E. coli
  MIC: 50 µg/mL and 179 µM
[6]; Bacillus subtilis, ATCC6633, 24 h, read-out: MIC B. subtilis
  MIC: 25 µg/mL and 89 µM
BSA [7]
  BSA-binding constant K, Marker: Ibuprofen: 7.11 (±0.29) × 10^5 M^−1
  BSA-binding constant K, No Marker: 2.97 (±0.16) × 10^6 M^−1
  BSA-binding constant K, Marker: Warfarin: 2.84 (±0.10) × 10^5 M^−1
HSA [8]
  HSA-binding constant K, Marker: Ibuprofen: 4.56 (±0.37) × 10^4 M^−1
  HSA-binding constant K, No Marker: 4.04 (±0.30) × 10^5 M^−1
  HSA-binding constant K, Marker: Warfarin: 1.23 (±0.05) × 10^5 M^−1
[9]
  H2O2%: 76.05 ± 1.51%
CT DNA
  Kb (DNA-binding constant): 3.71 (±0.14) × 10^5 M^−1
HSA [10]
  K HSA-binding constant: 4.04 (±0.30) × 10^5 M^−1
  kq HSA-quenching constant: 1.72 (±0.06) × 10^13 M^−1 s^−1
[11]
  DPPH% (30 min): 7.97 ± 0.53%
  DPPH% (60 min): 10.22 ± 0.30%

## CC(Cc1ccc(O)c(O)c1)C(C)Cc1ccc(O)c(O)c1 (stereo not shown) [NDGA, nordihydroguaiaretic acid, reference compound]
DPPH radical scavenging
  DPPH% (30 min): 87.08 ± 0.12%
  DPPH% (60 min): 87.47 ± 0.12%

## Cc1c(C)c2c(c(C)c1O)CCC(C)(C(=O)O)O2 (stereo not shown) [Trolox, 6-hydroxy-2,5,7,8-tetramethylchromane-2-carboxylic acid, reference compound]
[12]
  ABTS%: 98.10 ± 0.48%

## CC(=O)[O-].CC(=O)[O-].[Pd+2] [Pd(CH3COO)2]
[13]
  MIC: > 200 µg/mL

## O=Cc1cc(Cl)cc(Cl)c1O [3,5-diCl-saloH, 3,5-dichloro-salicylaldehyde]
BSA [1]
  K BSA-binding constant: 1.64 (±0.10) × 10^6 M^−1
  kq BSA-quenching constant: 1.47 (±0.09) × 10^13 M^−1 s^−1
EB-DNA adduct (CT DNA)
  KSV (Stern–Volmer constant), EB-DNA: 3.56 (±0.09) × 10^4 M^−1
  kq (EB-DNA quenching constant): 1.55 (±0.04) × 10^12 M^−1s^−1
  ΔΙ/Ι0 (%) EB-DNA fluorescence quenching: 43.2%
[2]
  ABTS%: 84.89 ± 0.16%
[3]; Staphylococcus aureus, ATCC6538, 24 h; read-out: MIC S. aureus
  MIC: 50 µg/mL
[3]; Staphylococcus aureus, ATCC6538; 24 h, value in parentheses; read-out: MIC S. aureus
  MIC: 262 µM
[4]
  MIC: 50 µg/mL and 262 µM
[5]; Escherichia coli, NCTC29212, 24 h; read-out: MIC E. coli
  MIC: 50 µg/mL
[5]; Escherichia coli, NCTC29212; 24 h, value in parentheses; read-out: MIC E. coli
  MIC: 262 µM
[6]; Bacillus subtilis, ATCC6633, 24 h; read-out: MIC B. subtilis
  MIC: 50 µg/mL
[6]; Bacillus subtilis, ATCC6633; 24 h, value in parentheses; read-out: MIC B. subtilis
  MIC: 262 µM
BSA [7]
  BSA-binding constant K, Marker: Ibuprofen: 1.35 (±0.55) × 10^5 M^−1
  BSA-binding constant K, No Marker: 1.64 (±0.10) × 10^6 M^−1
  BSA-binding constant K, Marker: Warfarin: 5.09 (±0.09) × 10^5 M^−1
HSA [8]
  HSA-binding constant K, Marker: Ibuprofen: 1.87 (±0.08) × 10^5 M^−1
  HSA-binding constant K, No Marker: 6.33 (±0.14) × 10^5 M^−1
  HSA-binding constant K, Marker: Warfarin: 1.52 (±0.07) × 10^5 M^−1
[9]
  H2O2%: 79.92 ± 0.34%
CT DNA
  Kb (DNA-binding constant): 5.36 (±0.15) × 10^5 M^−1
HSA [10]
  K HSA-binding constant: 6.33 (±0.14) × 10^5 M^−1
  kq HSA-quenching constant: 7.11 (±0.32) × 10^12 M^−1 s^−1
[11]
  DPPH% (30 min): 15.68 ± 0.15%
  DPPH% (60 min): 18.80 ± 0.52%

## O=C1O[C@H]([C@@H](O)CO)C(O)=C1O [L-ascorbic acid, reference compound]
[14]
  H2O2%: 60.80 ± 0.20%

Source: publication PMC9323974, “Palladium(II) Complexes of Substituted Salicylaldehydes: Synthesis, Characterization and Investigation of Their Biological Profile” (Pharmaceuticals, 2022)
